The test relates to Myc. Nature of the test: Myc inhibition assay: Myc expression per cell by anti-Myc immunofluorescence, high-content imaging. It counts as cell-based, human (patient-derived medulloblastoma xenograft cells). The following applies: medulloblastoma PDX cells, 4 h. An excerpt: To identify Myc inhibitors, cells isolated from patient-derived orthotopic xenografts (PDXs) from patients with Myc-driven medulloblastoma were used. Specifically, PDX cells were propagated by transplantation directly into the cerebellum of immunodeficient (NSG) mice and were never passaged in vitro in order to maintain properties of the tumor from which they were derived. Tumor tissues were isolated from tumor-bearing animals, dissociated into a single-cell suspension, resuspended in serum-free media, and immediately plated in 384 well plates. After overnight recovery, compounds were added to each well, and cells were incubated for 4 hours before being fixed and stained with anti-Myc antibodies and with DAPI to label nuclei. Cells were then analyzed using high-content imaging to determine the levels of Myc expression per cell and IC50 values of the compounds.

[1] abbreviates: Table 1, read-out: IC50 (Myc inhibition).
[2] abbreviates: Table 2, read-out: MYC Inhibition IC50.

In general, IC50 refers to the concentration needed to halve the response being measured.

Read-outs that look alike come from different tables or passages of the source.

For the compound `Cc1cccc(Nc2nccc(-c3ccnc(O)c3)n2)c1` [Compound 159, 4-(2-(m-tolylamino)pyrimidin-4-yl)pyridin-2-ol], the half-inhibitory concentration (IC50) is, setting by setting: under setting [1], 0.2 to 1 µM; under setting [2], 0.2 to 1 µM. Consider `FC(F)(F)c1cccc(Nc2nccc(-c3ccc4[nH]cnc4c3)n2)c1` [Compound 50], for which the IC50 lay within 1 to 10 µM under setting [1] and 1 to 10 µM under setting [2].

For the compound `Oc1cc(-c2ccnc(Nc3cccnc3)n2)ccn1` [Compound 188, 4-(2-(pyridin-3-ylamino)pyrimidin-4-yl)pyridin-2-ol], the IC50 fell in the range of 1 to 10 µM under setting [1] and 1 to 10 µM under setting [2].

`Oc1ccnc(-c2ccnc(Nc3ccccc3)n2)c1` [Compound 183, 2-(2-(phenylamino)pyrimidin-4-yl)pyridin-4-ol]: the IC50 under setting [1] lay within 1 to 10 µM and the IC50 under setting [2] was 1 to 10 µM.

Regarding `Cc1ccc(Nc2nccc(-c3ccc4[nH]cnc4c3)n2)cc1C(F)(F)F` [Compound 265, 4-(1H-benzo[d]imidazol-5-yl)-N-(4-methyl-3-(trifluoromethyl)phenyl)pyrimidin-2-amine], the IC50 was under 0.2 µM under setting [1] and under 0.2 µM under setting [2]. With `CC(C)n1cnc2ccc(-c3ccnc(Nc4cccc(F)c4)n3)cc21` [Compound 277A, N-(3-fluorophenyl)-4-(1-isopropyl-1H-benzo[d]imidazol-6-yl)pyrimidin-2-amine], under setting [1], the IC50 was under 0.2 µM. Consider `c1csc(CNc2nccc(-c3ccc4[nH]cnc4c3)n2)c1` [Compound 75, 4-(1H-benzo[d]imidazol-5-yl)-N-(thiophen-2-ylmethyl)pyrimidin-2-amine], for which the half-maximal inhibitory concentration (IC50) under setting [1] was in the range of 1 to 10 µM and the IC50 under setting [2] lay in the range of 1 to 10 µM. As to `COc1cc(-c2ncnc(Nc3ccccc3)n2)ccn1` [Compound 240, 4-(2-methoxypyridin-4-yl)-N-phenyl-1,3,5-triazin-2-amine], the IC50 is, setting by setting: under setting [1], 1 to 10 µM; under setting [2], 1 to 10 µM.

As to `NC(=O)c1ccc(Nc2nccc(-c3ccc4[nH]cnc4c3)n2)cc1` [Compound 73, 4-((4-(1H-benzo[d]imidazol-5-yl)pyrimidin-2-yl)amino)benzamide], the IC50 lay in the range of 1 to 10 µM under setting [1] and 1 to 10 µM under setting [2].

As to `Cc1ccc(Nc2nccc(-c3ccc4[nH]cnc4c3)n2)cc1` [Compound 103, 4-(1H-benzo[d]imidazol-5-yl)-N-(p-tolyl)pyrimidin-2-amine], the IC50 reads like this: under setting [1], 0.2 to 1 µM; under setting [2], 0.2 to 1 µM. As for `CC(=O)c1cccc(Nc2nccc(-c3ccc4[nH]cnc4c3)n2)c1` [Compound 256, 1-(3-((4-(1H-benzo[d]imidazol-5-yl)pyrimidin-2-yl)amino)phenyl)ethan-1-one], the IC50 under setting [1] was under 0.2 µM and the IC50 under setting [2] was under 0.2 µM. As for `COc1cc(-c2ccnc(Nc3cccc(C)c3)n2)ccn1` [Compound 160, 4-(2-methoxypyridin-4-yl)-N-(m-tolyl)pyrimidin-2-amine], the IC50 was 1 to 10 µM under setting [1] and 1 to 10 µM under setting [2]. Take `FC(F)(F)c1cccc(Nc2nccc(-c3cn4ccnc4cn3)n2)c1` [Compound 107, 4-(Imidazo[1,2-a]pyrazin-6-yl)-N-(3-(trifluoromethyl)phenyl)pyrimidin-2-amine]: the IC50 by setting is: under setting [1], 1 to 10 µM; under setting [2], 1 to 10 µM. Take `c1cc(Nc2nccc(-c3ccc4[nH]cnc4c3)n2)cc(-c2nnn[nH]2)c1` [Compound 267, N-(3-(1H-tetrazol-5-yl)phenyl)-4-(1H-benzo[d]imidazol-5-yl)pyrimidin-2-amine]: the IC50 is under 0.2 µM under setting [1] and under 0.2 µM under setting [2]. Turning to `COc1ncc(-c2ccnc(Nc3cccc(F)c3)n2)s1` [Compound 180, N-(3-fluorophenyl)-4-(2-methoxythiazol-5-yl)pyrimidin-2-amine], the IC50 runs as follows: under setting [1], 1 to 10 µM; under setting [2], 1 to 10 µM. `COc1cc(-c2ccnc(Nc3ccncn3)n2)ccn1` [Compound 177, 4-(2-methoxypyridin-4-yl)-N-(pyrimidin-4-yl)pyrimidin-2-amine]: the IC50 by setting is: under setting [1], 10 to 100 µM; under setting [2], 10 to 100 µM. Consider `FC(F)(F)c1cccc(Nc2nccc(-c3cnc4nc[nH]c4c3)n2)c1` [Compound 161, 4-(1H-imidazo[4,5-b]pyridin-6-yl)-N-(3-(trifluoromethyl)phenyl)pyrimidin-2-amine], for which the IC50 runs as follows: under setting [1], under 0.2 µM; under setting [2], under 0.2 µM.

With `FC(F)(F)c1cccc(Nc2nccc(N3CCc4[nH]cnc4C3)n2)c1` [Compound 112, 4-(1,4,6,7-tetrahydro-5H-imidazo[4,5-c]pyridin-5-yl)-N-(3-(trifluoromethyl)phenyl)pyrimidin-2-amine], the IC50 under setting [1] lay in the range of 1 to 10 µM and the IC50 under setting [2] lay in the range of 1 to 10 µM.

As for `CC(C)c1ccccc1Nc1nccc(-c2ccc3[nH]cnc3c2)n1` [Compound 64, 4-(1H-benzo[d]imidazol-5-yl)-N-(2-isopropylphenyl)pyrimidin-2-amine], the half-maximal inhibitory concentration (IC50) reads like this: under setting [1], 1 to 10 µM; under setting [2], 1 to 10 µM.

With `O=S(=O)(Nc1cccc(Nc2nccc(-c3ccc4[nH]cnc4c3)n2)c1)c1ccccc1` [Compound 38, N-(3-((4-(1H-benzo[d]imidazol-5-yl)pyrimidin-2-yl)amino)phenyl)benzenesulfonamide], the IC50 was in the range of 0.2 to 1 µM under setting [1] and 0.2 to 1 µM under setting [2]. Take `Fc1cncc(Nc2nccc(-c3ccc4[nH]cnc4c3)n2)c1` [Compound 83, 4-(1H-benzo[d]imidazol-5-yl)-N-(5-fluoropyridin-3-yl)pyrimidin-2-amine]: the IC50 is 1 to 10 µM under setting [1] and 1 to 10 µM under setting [2]. As to `COc1cc(-c2ccnc(Nc3ccccc3)n2)ncn1` [Compound 162, 6′-methoxy-N-phenyl-[4,4′-bipyrimidin]-2-amine], the IC50 under setting [1] is 10 to 100 µM and the IC50 under setting [2] lay within 10 to 100 µM. Turning to `Cc1ccc(Nc2nccc(-c3ccc4[nH]cnc4c3)n2)cc1C` [Compound 60, 4-(1H-benzo[d]imidazol-5-yl)-N-(3,4-dimethylphenyl)pyrimidin-2-amine], the IC50 under setting [1] is 0.2 to 1 µM and the IC50 under setting [2] was 0.2 to 1 µM. For `c1cc(-c2ccc3[nH]cnc3c2)nc(Nc2ccc3c(c2)CCC3)n1` [Compound 97, 4-(1H-benzo[d]imidazol-5-yl)-N-(2,3-dihydro-1H-inden-5-yl)pyrimidin-2-amine], the IC50 by setting is: under setting [1], 1 to 10 µM; under setting [2], 1 to 10 µM. For `Clc1ccc(Nc2nccc(-c3ccc4[nH]cnc4c3)n2)cc1` [Compound 86, 4-(1H-benzo[d]imidazol-5-yl)-N-(4-chlorophenyl)pyrimidin-2-amine], the IC50 runs as follows: under setting [1], 0.2 to 1 µM; under setting [2], 0.2 to 1 µM. Regarding `c1cc(Nc2nccc(-c3ccc4[nH]cnc4c3)n2)cc(N2CCCCC2)c1` [Compound 65, 4-(1H-benzo[d]imidazol-5-yl)-N-(3-(piperidin-1-yl)phenyl)pyrimidin-2-amine], the IC50 fell in the range of 0.2 to 1 µM under setting [1] and 0.2 to 1 µM under setting [2].

For `Oc1cc(Nc2ccnc(Nc3cccc(F)c3)n2)ccn1` [Compound 118, 4-((2-((3-fluorophenyl)amino)pyrimidin-4-yl)amino)pyridin-2-ol], the IC50 is, setting by setting: under setting [1], 10 to 100 µM; under setting [2], 10 to 100 µM. Regarding `O=C(O)c1cccc(Nc2nccc(-c3ccc4[nH]cnc4c3)n2)c1` [Compound 28, 3-((4-(1H-benzo[d]imidazol-5-yl)pyrimidin-2-yl)amino)benzoic acid], the IC50 is, setting by setting: under setting [1], 1 to 10 µM; under setting [2], 1 to 10 µM. Consider `Oc1ccc(-c2ccnc(Nc3cccc(C(F)(F)F)c3)n2)cc1` [Compound 130, 4-(2-((3-(Trifluoromethyl)phenyl)amino)pyrimidin-4-yl)phenol], for which the IC50 is, setting by setting: under setting [1], 0.2 to 1 µM; under setting [2], 0.2 to 1 µM. Take `FC(F)(F)c1nnc(Nc2nccc(-c3ccc4[nH]cnc4c3)n2)s1` [Compound 58, N-(4-(1H-benzo[d]imidazol-5-yl)pyrimidin-2-yl)-5-(trifluoromethyl)-1,3,4-thiadiazol-2-amine]: the IC50 was in the range of 1 to 10 µM under setting [1] and 1 to 10 µM under setting [2]. Take `c1cc(-c2ccc3[nH]cnc3c2)nc(NC2CCOCC2)n1` [Compound 101, 4-(1H-benzo[d]imidazol-5-yl)-N-(tetrahydro-2H-pyran-4-yl)pyrimidin-2-amine]: the IC50 fell in the range of 1 to 10 µM under setting [1] and 1 to 10 µM under setting [2]. Take `NCCCOc1cccc(Nc2nccc(-c3ccc4[nH]cnc4c3)n2)c1` [Compound 91, N-(3-(3-aminopropoxy)phenyl)-4-(1H-benzo[d]imidazol-5-yl)pyrimidin-2-amine]: the IC50 lay within 0.2 to 1 µM under setting [1] and 0.2 to 1 µM under setting [2]. For the compound `c1cc(Nc2nccc(-c3ccc4[nH]cnc4c3)n2)cc(N2CCOCC2)c1` [Compound 102, 4-(1H-benzo[d]imidazol-5-yl)-N-(3-morpholinophenyl)pyrimidin-2-amine], the IC50 runs as follows: under setting [1], under 0.2 µM; under setting [2], under 0.2 µM.

In the case of `O=c1[nH]c2ccc(-c3ccnc(Nc4cccc(C(F)(F)F)c4)n3)cc2[nH]1` [Compound 116, 5-(2-((3-(trifluoromethyl)phenyl)amino)pyrimidin-4-yl)-1H-benzo[d]imidazol-2(3H)-one], the IC50 is 10 to 100 µM under setting [1] and 10 to 100 µM under setting [2].

Consider `COc1cncc(-c2ccnc(Nc3cccc(C(F)(F)F)c3)n2)c1` [Compound 204, 4-(5-methoxypyridin-3-yl)-N-(3-(trifluoromethyl)phenyl)pyrimidin-2-amine], for which the IC50 lay in the range of 0.2 to 1 µM under setting [1] and 0.2 to 1 µM under setting [2]. In the case of `COc1cncc(-c2ccnc(Nc3cccc(F)c3)n2)c1` [Compound 203, N-(3-fluorophenyl)-4-(5-methoxypyridin-3-yl)pyrimidin-2-amine], the IC50 fell in the range of 0.2 to 1 µM under setting [1] and 0.2 to 1 µM under setting [2]. As to `COc1cc(-c2ccnc(Nc3cccc(F)c3F)n2)ccn1` [Compound 206, N-(2,3-difluorophenyl)-4-(2-methoxypyridin-4-yl)pyrimidin-2-amine], the IC50 under setting [1] lay in the range of 10 to 100 µM and the IC50 under setting [2] fell in the range of 10 to 100 µM.

The record behind these values is patent US20260356817A1, “AMINOPYRIMIDINE AND AMINOTRIAZINE DERIVATIVES AS MYC PROTEIN MODULATORS” (Sanford Burnham Prebys Medical Discovery Institute, priority 2022, published 2026).
